From the METLIN SMRT retention time set (Domingo-Almenara et al. 2019)

Assay: gradient 5% acetonitrile 3 min, to 50% in 2 min, to 85% in 15 min, held 3 min, 100 µL/min
Conditions: column: Zorbax Extend-C18 2.1 x 50 mm; eluents: water / acetonitrile, 0.1% formic acid
How it was run: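 Using water and acetonitrile that each contained 0.1% formic acid, mixtures of ~100 pure standards were separated at 100 μL/min on a Zorbax Extend-C18 column (2.1 × 50 mm, 1.8 μm). The HPLC fed a quadrupole time-of-flight mass spectrometer working in positive and negative ionization mode, with dead and dwell volumes of 40 μL and 900 μL. Data were acquired over 3 months. Retention time was read from computationally picked adduct peaks after manual inspection of each.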

RP-LC retention time [s] | SMILES
747 | Cc1cccc(C)c1NC(=O)CN1C(=O)NC(c2ccc(Cl)cc2)C2=C1COC2=O (stereo not given)
614 | COc1ccc(C(=O)Nc2ccc3nc(N4CCN(C5CCCCC5)CC4)cc(C(=O)O)c3c2)cc1
1170 | O=S(=O)(c1cc(F)cc(F)c1)N1CCC(c2noc(-c3cccc(F)c3)n2)CC1
838 | O=C1NCCCCCCN(C(=O)c2cccs2)[C@H]2CCCC[C@@H]12
627 | CCCNc1cc(N2CCC(CCC(=O)NC3CCN(C(=O)OCC)CC3)CC2)ncn1
1290 | COc1ccc(-c2noc(-c3cccnc3N3CCN(c4ccccc4)CC3)n2)cc1
799 | Cc1ccc(N2C=C(C(=O)N3CCCC3)S(=O)(=O)c3ccc(F)cc32)cc1
850 | Cc1ccc(NC(=O)Cn2nc(C(=O)N3CCCC3)c3ccccc32)cc1
541 | Cc1cccc(NC(=O)CN2CCN(Cc3nc4ccccc4[nH]3)CC2)c1C
813 | O=C(NC1CCCC1)C1CCN(C(=O)c2ccc(-c3noc(C4CC4)n3)cc2)CC1
1060 | O=C(CCS(=O)(=O)c1ccccc1)Nc1nc(-c2cc(Cl)sc2Cl)cs1
837 | Cn1cc(-c2cc3n(n2)CCCN3C(=O)CCC(=O)NC2CCCCC2)c2ccccc21
707 | COc1ccc(S(=O)(=O)Nc2cc(-c3cn4cccc(C)c4n3)ccc2C)cc1C
903 | CC(Oc1ccccc1)C(=O)N(C)CCc1noc(-c2ccccc2)n1 (stereo not given)
807 | Cc1ccc(S(=O)(=O)N2CC3CN(C(=O)c4cccn4C)CC(C2)O3)cc1
874 | O=C(Nc1ccc(Cl)cc1)C1CCN(C(=O)c2ncn3c2COC(c2ccc(F)cc2)C3)CC1 (stereo not given)
650 | Fc1cccc(N2CC3(CCN(Cc4ccncc4F)CC3)C2c2ccccc2)c1 (stereo not given)
799 | Cc1cc(C)c(NC(=O)C2CCCN2S(=O)(=O)c2cc3c(cc2C)NC(=O)CO3)c(C)c1 (stereo not given)

RP-LC retention time [s] | SMILES
649 | Cc1cc(N2CCN(C(=O)c3cccc(C(F)(F)F)c3)CC2)nc2nnc(C)n12
795 | COc1cc(Cl)c(NC(=O)C2CCN(C(=O)C3Sc4ccccc4NC3=O)CC2)c(OC)c1 (stereo not given)
790 | COc1ccc(C(=O)N2CCC(c3noc(-c4cnccn4)n3)C2)cn1 (stereo not given)
881 | CN(C)c1cccc(C(=O)N2CCN(C(=O)c3nnn4c3COC(c3ccc(Cl)cc3)C4)CC2)c1 (stereo not given)
736 | OC[C@H]1O[C@@H](c2ccc(Cl)c(Cc3ccc(O[C@H]4CCOC4)cc3)c2)[C@H](O)[C@@H](O)[C@@H]1O
651 | COc1ccc(NC(=O)N2CCCC(Cn3cnc4cccnc43)C2)c(OC)c1 (stereo not given)
559 | CC(C)C(=O)N1CCC2(CC1)CCC(O)(CN(C)C)CC2
584 | CC(C)NC(=O)C1CCC(=O)N1C1CCN(C(=O)C2CCC2)CC1 (stereo not given)
740 | Cc1cc(C(=O)Nc2nc3ccc(S(=O)(=O)N(C)C)cc3s2)on1
804 | COc1cc(NC(=O)N2CCC(N3CCN(Cc4ccccc4)C3=O)CC2)cc(OC)c1
601 | CC(CCNC(=O)c1cc(S(=O)(=O)N2CCCC2)ccc1Cl)N1CCCC1 (stereo not given)
1150 | CCc1nc(-c2csc(S(=O)(=O)N3CCCC(C(=O)Nc4ccc(Cl)cc4F)C3)c2)no1 (stereo not given)
644 | CCCn1c(CCNC(=O)c2ccccc2F)nc2cccnc21
755 | CNC(=O)c1cn2ccnc(-c3ccc(C)cc3)c2n1
859 | Cc1cc(C)cc(-c2nnc3ccc(Cl)nn23)c1
798 | Cc1cccc(OCC(=O)N(Cc2ccc(N(C)C)cc2)C2CCS(=O)(=O)C2)c1C (stereo not given)
730 | O=C(CC1CCN(C(=O)c2ccc3nc(-c4ccccc4)oc3c2)CC1)NC1CC1
